Patent publication US12246091B2, “Method of encapsulating active ingredients in liposomes” (ABNOBA GMBH, priority 2018, dated 2025)

Assay: Solubility of the amphiphilic compound in the first liquid perfluoroperhydrophenanthrene (C14F24)
Conditions: for solubility: perfluoroperhydrophenanthrene (C14F24), organic solvent or mixture

solubility	Structure (SMILES)	Solubility in C14F24 (in perfluoroperhydrophenanthrene (C14F24, CAS 306-91-2), bound is the detection limit)
< 10 µM	CCCCCCCCCCCCCCCC(=O)OC[C@H](COP(=O)([O-])OCC[N+](C)(C)C)OC(=O)CCCCCCCCCCCCCCC [DPPC, dipalmitoylphosphatidylcholine]	
	CCCCCCCCCCCCCCCCCC(=O)OC[C@H](COP(=O)([O-])OCC[N+](C)(C)C)OC(=O)CCCCCCCCCCCCCCCCC [DSPC, distearoylphosphatidylcholine]	< 10^−5 mol/l
< 10 µM	CC(C)CCC[C@@H](C)[C@H]1CC[C@H]2[C@@H]3CC=C4C[C@@H](O)CC[C@]4(C)[C@H]3CC[C@]12C [cholesterol]	
